Assay results: patent US20240115654A1, “INTRAVENOUS ADMINISTRATION OF ENGINEERED ANTIMICROBIAL AMPHIPHILIC PEPTIDES” (priority 2021, published 2024)
In brackets after ≈: the same amount, converted by molar mass. Peptide text beside a SMILES is read from it.

Legend:
[1] = test system: Enterococcus faecium isolates (n = 104); assay: microbe, parasite or virus in culture
Protocol: Comparator antibiotics were supplied by Micromyx, and stock solutions were prepared on the first day of testing using solvents recommended by CLSI (1). Stock solutions of all compounds were made at 40× the final testing concentration and stored at −80° C. prior to testing. Information regarding compound source, catalog and lot number, testing concentrations and drug diluent for the comparators and test agent are detailed below in Table 3.
The test organisms evaluated in this study consisted of clinical isolates from the Micromyx Repository and reference isolates from the American Type Culture Collection (ATCC; Manassas, VA). The clinical isolates were obtained from USA hospitals. Upon initial receipt at Micromyx, the organisms were sub-cultured onto an appropriate agar medium. Following incubation, colonies were harvested from these plates and cell suspensions prepared and frozen at −80° C. with a cryoprotectant. […] Plates were incubated at 35° C. overnight.
MIC values were determined using a broth microdilution procedure described by CLSI (1, 3).
The test articles and comparator compounds (300 μl at 40× the highest concentration to be tested) were dispensed into the appropriate wells in column 1. The Biomek 2000 was then used to make 2-fold serial dilutions in the mother plates from column 1 through column 11. The wells of Column 12 contained no drug and served as the organism growth control wells for the assay.
The daughter plates were completed on the Biomek FX instrument which transferred 5 μL of drug solution from each well of a mother plate to the corresponding well of each daughter plate in a single step. A standardized inoculum of each test organism was prepared per CLSI methods (1). The inoculum for each organism was dispensed into sterile reservoirs divided by length (Beckman Coulter), and the Biomek 2000 was used to inoculate the plates. Daughter plates were placed on the Biomek 2000 work surface in reverse orientation so that inoculation took place from low to high drug concentration.
Plates were stacked 3-4 high, covered with a lid on the top plate, placed in plastic bags, and incubated at 35° C. for 16 to 20 hrs. Following incubation, the microplates were removed from the incubator and viewed from the bottom using a plate viewer. […] The MIC was read and recorded as the lowest concentration of drug that inhibited visible growth of the organism.
Clinical breakpoints to determine percent resistance within a given organism group were obtained from CLSI (3), with the exception of colistin for K. pneumoniae, Enterobacter spp., and E. coli, which are only available from EUCAST.

[2] = test system: Pseudomonas aeruginosa ATCC 27853 (non-MDR; QC); details: P. aeruginosa ATCC 27853; established CLSI QC range; cited from earlier work

Row | Compound | MIC50 ([1]; Enterococcus faecium (n = 104)) [µg/mL] | MIC90 ([1]; Enterococcus faecium (n = 104)) [µg/mL] | Mode (MIC) ([1]; Enterococcus faecium (n = 104)) [µg/mL] | MIC50 ([1]; isolates (n = 104)) [µg/mL] | MIC90 ([1]; isolates (n = 104)) [µg/mL] | MIC range ([1]; isolates (n = 104)) [µg/mL] | MIC QC range (in parentheses under the MIC) [2]
1 | CC(C)[C@H](NC(=O)[C@H](Cc1c[nH]c2ccccc12)NC(=O)[C@H](CCCNC(=N)N)NC(=O)[C@H](CCCNC(=N)N)NC(=O)[C@@H](NC(=O)[C@@H](NC(=O)[C@H](CCCNC(=N)N)NC(=O)[C@@H](NC(=O)[C@@H](NC(=O)[C@H](CCCNC(=N)N)NC(=O)[C@H](CCCNC(=N)N)NC(=O)[C@H](Cc1c[nH]c2ccccc12)NC(=O)[C@@H](NC(=O)[C@H](CCCNC(=N)N)NC(=O)[C@H](CCCNC(=N)N)NC(=O)[C@@H](NC(=O)[C@H](CCCNC(=N)N)NC(=O)[C@H](CCCNC(=N)N)NC(=O)[C@@H](NC(=O)[C@H](Cc1c[nH]c2ccccc12)NC(=O)[C@H](CCCNC(=N)N)NC(=O)[C@@H](N)CCCNC(=N)N)C(C)C)C(C)C)C(C)C)C(C)C)C(C)C)C(C)C)C(C)C)C(=O)N[C@@H](CCCNC(=N)N)C(=O)N[C@@H](CCCNC(=N)N)C(N)=O [SEQ ID NO: 1] (H-RRWVRRVRRVWRRVVRVVRRWVRR-NH2) | 1 (≈ 0.294 µM) | 2 (≈ 0.588 µM) | 1 | 0.5 (≈ 0.147 µM) | 1 (≈ 0.294 µM) | 0.25 to 2 | 
2 | Colistin [reference compound] |  |  |  |  |  |  | (0.5-4) μg/mL
